Measured values from patent US9249178B2, “Tricyclic nucleosides and oligomeric compounds prepared therefrom” (UNIVERSITÄT BERN, priority 2012, dated 2016).

Assays:
complementary RNA = assay: Tm study of 10mer oligomeric compounds duplexed to RNA; type: binding; details: 150 mM NaCl, 10 mM phosphate, 0.1 mM EDTA, pH 7; for ΔTm/mod (° C.) vs RNA: duplex with complementary RNA, compared to unmodified 10mer A01
Experimental: (§1) The relative ability of a chemically-modified oligomeric compound to bind to complementary nucleic acid strands, as compared to natural oligonucleotides, is measured by obtaining the melting temperature of a hybridization complex of said chemically-modified oligomeric compound with its complementary unmodified target nucleic acid. The melting temperature (Tm), a characteristic physical property of double helixes, denotes the temperature in degrees centigrade at which 50% helical versus coiled (unhybridized) forms are present. Tm (also commonly referred to as binding affinity) is measured by using the UV spectrum to determine the formation and breakdown (melting) of hybridization. Base stacking, which occurs during hybridization, is accompanied by a reduction in UV absorption (hypochromicity). Consequently a reduction in UV absorption indicates a higher Tm. Following standard automated DNA synthesis protocols oligomeric compounds were prepared comprising one or more tricyclic nucleosides for Tm studies. After cleavage from the solid support, the oligomeric compounds were purified by ion exchange HPLC and analyzed by LCMS using standard procedures. The Tm of the modified 10mer oligomeric compounds were compared to an unmodified 10mer DNA oligonucleotide when duplexed to either DNA or RNA. Tm's were determined using a Cary 100 Bio spectrophotometer with the Cary Win UV thermal program was used to measure absorbance vs. temperature. For the Tm experiments, the oligomeric compounds were prepared at a concentration of […] in a buffer of 150 mM NaCl, 10 mM phosphate, 0.1 mM EDTA at pH 7. The concentration determined at 85° C. was […] after mixing of equal volumes of selected oligomeric compound and complementary RNA or DNA. The oligomeric compounds were hybridized with a complementary RNA or DNA by heating the duplex to 90° C. for 5 minutes and then cooling to room temperature. Tm measurements were taken using a spectrophotometer while the duplex solution was heated in a cuvette at a rate of 0.5° C./min starting at 15° C. until the temperature was 85° C. Tm values were determined using Vant Hoff calculations (A260 vs temperature curve) using non self-complementary sequences where the minimum absorbance related to the duplex and the maximum absorbance related to the non-duplex single strand are manually integrated into the program.

complementary DNA = assay: Tm study of 10mer oligomeric compounds duplexed to DNA; type: binding; details: 150 mM NaCl, 10 mM phosphate, 0.1 mM EDTA, pH 7; for ΔTm/mod (° C.) vs DNA: duplex with complementary DNA, compared to unmodified 10mer A01
Experimental: as §1

In the case of “AACTGTCACG (unmodified DNA) [A01, unmodified 10mer DNA oligonucleotide, phosphodiester linkages, reference compound]”, the “Tm duplexed with RNA” value (complementary RNA) is reported as 48.3 °C, the “ΔTm/mod (° C.) vs RNA” value (complementary RNA) is reported as 0 °C and the “Tm duplexed with DNA” value (complementary DNA) is reported as 47.9 °C. The “ΔTm/mod (° C.) vs DNA” value (complementary DNA) was 0 °C.
With AACTGTbCACG [A02] the “ΔTm/mod (° C.) vs RNA” value (complementary RNA) was “+0.4 °C” and the “ΔTm/mod (° C.) vs DNA” value (complementary DNA) was −0.9 °C.
For “AACTGTdCACG (AACTGT_{d}CACG; as printed in the source, key not given here) [A03, 10mer phosphodiester DNA with one tricyclic nucleoside of subscript d, subscripts drawn in drawing 18]”, the “ΔTm/mod (° C.) vs RNA” value (complementary RNA) was “+2.1 °C” and the “ΔTm/mod (° C.) vs DNA” value (complementary DNA) was “+0.5 °C”.
With AACTbGTCACG [A04] the “ΔTm/mod (° C.) vs RNA” value (complementary RNA) was “+2.4 °C” and the “ΔTm/mod (° C.) vs DNA” value (complementary DNA) was “+0.1 °C”.
AACTbGTbCACG [A06] was tested, and the “ΔTm/mod (° C.) vs RNA” value (complementary RNA) was “+0.5 °C” and the “ΔTm/mod (° C.) vs DNA” value (complementary DNA) was −0.7 °C.
In the case of AACTcGTcCACG [A07], the “ΔTm/mod (° C.) vs RNA” value (complementary RNA) is reported as “+1.3 °C” and the “ΔTm/mod (° C.) vs DNA” value (complementary DNA) is reported as −1.0 °C.
With “AACTdGTCACG (AACT_{d}GTCACG; as printed in the source, key not given here) [A05, 10mer phosphodiester DNA with one tricyclic nucleoside of subscript d]” the “ΔTm/mod (° C.) vs RNA” value (complementary RNA) was “+2.4 °C” and the “ΔTm/mod (° C.) vs DNA” value (complementary DNA) was “+0.4 °C”.
With “AACTdGTdCACG (AACT_{d}GT_{d}CACG; as printed in the source, key not given here) [A08, 10mer phosphodiester DNA with two tricyclic nucleosides of subscript d]” the “ΔTm/mod (° C.) vs RNA” value (complementary RNA) was “+1.2 °C” and the “ΔTm/mod (° C.) vs DNA” value (complementary DNA) was −0.6 °C.
In the case of “AACTeGTeCACG (AACT_{e}GT_{e}CACG; as printed in the source, key not given here) [A09, 10mer phosphodiester DNA with two tricyclic nucleosides of subscript e (tc^hdT)]”, the “ΔTm/mod (° C.) vs RNA” value (complementary RNA) is reported as −10.2 °C and the “ΔTm/mod (° C.) vs DNA” value (complementary DNA) is reported as −13.0 °C.
In the case of “AACTfGTfCACG (AACT_{f}GT_{f}CACG; as printed in the source, key not given here) [A10, 10mer phosphodiester DNA with two tricyclic nucleosides of subscript f]”, the “ΔTm/mod (° C.) vs RNA” value (complementary RNA) is reported as “+1.3 °C” and the “ΔTm/mod (° C.) vs DNA” value (complementary DNA) is reported as −2.0 °C.
“AaAaCaTaGaTaCaAaCaGa [A11, reference compound]” was tested, and the “ΔTm/mod (° C.) vs RNA” value (complementary RNA) was “+2.1 °C” and the “ΔTm/mod (° C.) vs DNA” value (complementary DNA) was “+1.3 °C”.
In the case of AaAaCaTaGaTdCaAaCaGa [A12], the “ΔTm/mod (° C.) vs RNA” value (complementary RNA) is reported as −0.6 °C and the “ΔTm/mod (° C.) vs DNA” value (complementary DNA) is reported as −2.8 °C.
AaAaCaTbGaTbCaAaCaGa [A14] was tested, and the “ΔTm/mod (° C.) vs RNA” value (complementary RNA) was “+2.0 °C” and the “ΔTm/mod (° C.) vs DNA” value (complementary DNA) was “+1.1 °C”.
For AaAaCaTcGaTcCaAaCaGa [A15], the “ΔTm/mod (° C.) vs RNA” value (complementary RNA) was “+2.0 °C” and the “ΔTm/mod (° C.) vs DNA” value (complementary DNA) was “+1.1 °C”.
With AaAaCaTdGaTaCaAaCaGa [A13] the “ΔTm/mod (° C.) vs RNA” value (complementary RNA) was −2.6 °C and the “ΔTm/mod (° C.) vs DNA” value (complementary DNA) was −3.8 °C.
With AaAaCaTdGaTdCaAaCaGa [A16] the “ΔTm/mod (° C.) vs RNA” value (complementary RNA) was “+2.3 °C” and the “ΔTm/mod (° C.) vs DNA” value (complementary DNA) was “+1.1 °C”.
